{"source": "patent US20130172246A1", "about": "“INSULIN GLARGINE VERSUS METFORMIN FOR THE FIRST-LINE TREATMENT OF EARLY TYPE-2 DIABETES” (priority 2011, published 2013)", "test_system": "type 2 diabetes patients", "assay": "Continuous glucose monitoring (CGM) with standardized test meal, clinical trial insulin glargine vs. metformin", "assay_type": "in vivo, human", "design": "AUC 2hpp value after a test meal - Visit 1 / AUC 2hpp value after a test meal - Visit 8 / AUC day 2 - visit 8 / AUC day 2 - change / AUC day 3 - visit 8 / AUC day 3 - change / AUC 2 h incremental after TM - visit 8 / AUC 2 h incremental after TM - change / AUC between 5.6 and fasting on day 2 - visit 8 / AUC between 5.6 and fasting on day 2 - change / AUC between 5.6 and fasting on day 3 - visit 8 / AUC between 5.6 and fasting on day 3 - change / AUC 2 h after test meal - visit 8 / AUC 2 h after test meal change: unit not given beside the values", "settings": "for Glycemic load - visit 8: (FG+Peak+2hppG)·⅓; for Glycemic load - visit 8 / MAGE - visit 8 / AUC day 2 - change / AUC day 2 - visit 8 / AUC day 3 - change / AUC day 3 - visit 8 / AUC between 5.6 and fasting on day 2 - change / AUC between 5.6 and fasting on day 3 - change / AUC 2 h after test meal change / AUC 2 h incremental after TM - change / Glycemic load - change / MAGE - change / AUC 2 h after test meal - visit 8 / AUC between 5.6 and fasting on day 2 - visit 8 / AUC between 5.6 and fasting on day 3 - visit 8 / AUC 2 h incremental after TM - visit 8: per protocol; for Glycemic load - visit 8 / MAGE - visit 8 / AUC day 2 - visit 8 / AUC day 3 - visit 8 / AUC 2 h after test meal - visit 8 / AUC between 5.6 and fasting on day 2 - visit 8 / AUC between 5.6 and fasting on day 3 - visit 8 / AUC 2 h incremental after TM - visit 8: week 36; for Glycemic load - visit 8 / AUC 2hpp value after a test meal - Visit 1 / MAGE - visit 8 / AUC 2 h after test meal change / AUC 2 h incremental after TM - change / Glycemic load - change / MAGE - change / AUC 2 h incremental after TM - visit 8 / AUC 2hpp value after a test meal - Visit 8: mean (SD); for fall of the total area under the curve (AUC-IG): CGM, p=0.04; for fall of the total area under the curve (AUC-IG) / decrease in the interstitial glucose level during CGM (Δ): start to end of study; for AUC 2hpp value after a test meal - Visit 1: baseline (week 0) before treatment; for MAGE - visit 8: mean amplitude of glycemic excursions; for AUC day 2 - change / AUC day 2 - visit 8: CGM day 2; for AUC day 2 - change / AUC day 3 - change / AUC between 5.6 and fasting on day 2 - change / AUC between 5.6 and fasting on day 3 - change / AUC 2 h after test meal change / AUC 2 h incremental after TM - change / Glycemic load - change / MAGE - change: change visit 1 to visit 8; for AUC day 2 - change / AUC day 2 - visit 8 / AUC day 3 - change / AUC day 3 - visit 8 / AUC between 5.6 and fasting on day 2 - change / AUC between 5.6 and fasting on day 3 - change / AUC 2 h after test meal - visit 8 / AUC between 5.6 and fasting on day 2 - visit 8 / AUC between 5.6 and fasting on day 3 - visit 8: mean; for AUC day 3 - change / AUC day 3 - visit 8: CGM day 3; for decrease in the interstitial glucose level during CGM (Δ): GLA vs. MET p=0.02; for AUC 2hpp value after a test meal - Visit 8: week 36 of treatment", "procedure": "The primary target variable determined was the Area Under the Curve (AUC) in mmol/L/time in subcutaneous abdominal fat after a test meal (TM) in a 2-hour course, which was determined by continuous blood glucose monitoring. The test meal was administered on the 2nd day of the CGM as breakfast. • AUC [mmol/L/time] 2 h pp\nCGMS: The system used for continuous glucose monitoring is the CGMS from Medtronic, CGMS® System Gold™ monitor/MiniMed glucose subcutaneous sensor. The system is authorized for continuous glucose monitoring over a period of 72 h. The measurement sensor is inserted into subcutaneous fat tissue with the aid of an applicator. The entire sensor is stuck on the skin using a plaster. This is followed by the calibration of the device for approximately 5 hours, during which the subcutaneous levels are synchronized with the capillary blood glucose levels. Over the course of 72 h, further calibrations are required, as recommended by the manufacturer. The measured data of the sensor are transmitted by means of radio frequency to the CGMS® System Gold™ monitor, which is worn on the belt for example. After completion of the measurement period, the sensor is removed and the data of the monitor are evaluated on the computer using the software. For the evaluation, only the measured data of the first 48 hours are used, since the accuracy of measurement decreases over the course of the third day.\nTest meal: On the morning of the 2nd day of the CGM, there is a standardized test meal in the trial center. This test meal (TM) consists of 95 g of whole-wheat bread, 20 g of margarine, 25 g of fruit preserves, 25 g of cheese, 200 ml of orange juice, 200 ml of milk mix with banana, strawberry or cocoa with a total of 560 Kcal. Blood is taken from the patient prior to the TM (after night-time fasting period of at least 8 hours). Subsequently, the TM should be eaten within 15 min. From the 1st bite, the time is measured, and after 2 h have elapsed, a 2nd blood collection is performed. During the TM and during the two hours thereafter, the patient should move as little as possible so as not to falsify the monitoring.\nThe primary target variable is the AUC (BG) TM of the glucose concentration in subcutaneous abdominal fat after a standardized test meal over a period of 2 hours. The AUC is calculated accordina to the trapezoidal rule.\n• Mean HbA1c, • Glycemic variability: • Standard deviation (SD) of the mean glucose concentration over 24 h (day 2), • MAGE—mean amplitude of glycemic excursion calculated as the mean from the glucose increases>1 SD of the mean glucose concentration over the course of 24 h • Glycemic load calculated by (FG+Peak+2hppG)·⅓ • Mean of C-peptide and intact proinsulin (fasting and 2 h pp) • Mean free fatty acids • Biomarkers of subclinical inflammation (hsCRP, PAI-1, leukocyte count fasting and 2 h postprandial) • Microalbuminuria (albumin/creatinine ratio) • Endothelial function at ball of thumb using laser Doppler (O2C) • Hypoglycemic intervals (time<3 mmol glucose) during CGM over 48 hours (day 2+3 after TM)\nIn the study in the previous examples, 75 patients (45 men, 30 women, mean age: 60.7±9.2 years) were examined, whose first diagnosis of type 2 diabetes dated back to less than 5 years and whose HbA1c level was between 6.5 and 8.5%. The patients were treated with either metformin (MET, 1000 mg b.i.d. (n=3)) or insulin glargine (GLA) q.d. just before bedtime (n=3). The insulin dose was adjusted for a target plasma glucose concentration (FPG) of ≦5.6 mmol/L according to a standardized titration algorithm. At the start and end of the study, the HbA1c level and the plasma glucose, proinsulin and C-peptide concentrations were determined. […] All the patients received a standardized test meal on the second day of the continuous glucose monitoring for comparison of the interindividual postprandial (pp) glucose excursions.", "data": [{"compound": "CN(C)C(=N)N=C(N)N", "note": "[Metformin]", "values": [{"measurement": "Glycemic load - visit 8", "result": "8.5 (2.1)"}, {"measurement": "fall of the total area under the curve (AUC-IG)", "result": "416.1 ± 537.6", "unit": "mmol·min/L"}, {"measurement": "AUC 2hpp value after a test meal - Visit 1", "result": "256.50 (72.837)"}, {"measurement": "MAGE - visit 8", "result": "6.3 (2.4)"}, {"measurement": "AUC day 2 - change", "result": "−416.1"}, {"measurement": "AUC day 2 - visit 8", "result": 1978.5}, {"measurement": "AUC day 3 - change", "result": "−411.5"}, {"measurement": "AUC day 3 - visit 8", "result": 1972.5}, {"measurement": "AUC between 5.6 and fasting on day 2 - change", "result": "−356.5"}, {"measurement": "AUC between 5.6 and fasting on day 3 - change", "result": "−317.4"}, {"measurement": "AUC 2 h after test meal change", "result": "−42.9 (73.1)"}, {"measurement": "AUC 2 h incremental after TM - change", "result": "−5.8 (31.8)"}, {"measurement": "Glycemic load - change", "result": "−1.7 (2.7)"}, {"measurement": "MAGE - change", "result": "−0.8 (3.3)"}, {"measurement": "AUC 2 h after test meal - visit 8", "result": 213.6}, {"measurement": "AUC between 5.6 and fasting on day 2 - visit 8", "result": "−15.4"}, {"measurement": "AUC between 5.6 and fasting on day 3 - visit 8", "result": 41.1}, {"measurement": "AUC 2 h incremental after TM - visit 8", "result": "49.6 (25.0)"}, {"measurement": "decrease in the interstitial glucose level during CGM (Δ)", "result": "1.4 ± 1.8", "unit": "mmol/L"}, {"measurement": "AUC 2hpp value after a test meal - Visit 8", "result": "213.61 (52.844)"}]}, {"compound": "Insulin glargine", "values": [{"measurement": "Glycemic load - visit 8", "result": "8.8 (1.6)"}, {"measurement": "fall of the total area under the curve (AUC-IG)", "result": "671.2 ± 507.9", "unit": "mmol·min/L"}, {"measurement": "postprandial plasma glucose two hours after a test meal and differences in AUC-IG after the test meal", "setting": "GLA vs. MET", "result": "showed no significance"}, {"measurement": "AUC 2hpp value after a test meal - Visit 1", "result": "287.38 (67.235)"}, {"measurement": "MAGE - visit 8", "result": "8.0 (2.3)"}, {"measurement": "AUC day 2 - change", "result": "−671.2"}, {"measurement": "AUC day 2 - visit 8", "result": 2000.3}, {"measurement": "AUC day 3 - change", "result": "−628.2"}, {"measurement": "AUC day 3 - visit 8", "result": 2045.0}, {"measurement": "AUC between 5.6 and fasting on day 2 - change", "result": "−565.4"}, {"measurement": "AUC between 5.6 and fasting on day 3 - change", "result": "−571.5"}, {"measurement": "AUC 2 h after test meal change", "result": "−63.0 (5.4)"}, {"measurement": "AUC 2 h incremental after TM - change", "result": "−5.7 (40.4)"}, {"measurement": "Glycemic load - change", "result": "−2.7 (1.9)"}, {"measurement": "MAGE - change", "result": "−0.4 (3.4)"}, {"measurement": "AUC 2 h after test meal - visit 8", "result": 224.4}, {"measurement": "AUC between 5.6 and fasting on day 2 - visit 8", "result": "−58.5"}, {"measurement": "AUC between 5.6 and fasting on day 3 - visit 8", "result": "−11.6"}, {"measurement": "AUC 2 h incremental after TM - visit 8", "result": "68.3 (24.6)"}, {"measurement": "decrease in the interstitial glucose level during CGM (Δ)", "result": "2.4 ± 1.8", "unit": "mmol/L"}, {"measurement": "AUC 2hpp value after a test meal - Visit 8", "result": "224.38 (40.048)"}]}]}
